Test: Hot stage polarized light microscopy (HSPLM)
Type: physicochemical
Details: heat only, 130° C. or 160° C., FIG. 3
Experimental: Hot stage polarized light microscopy (HSPLM) and polarized light microscopy (PLM) were used to determine amorphous nature and visual interactions between excipients when melting. Samples were prepared by lightly spreading physical mixtures of the two compositions onto a glass slide. An Olympus BX60 microscope (Olympus Corp., Center Valley, Pa.) with Insight QE camera (Diagnostic Instruments, Inc., Sterling Heights, Mich.) was used for visual observation. […] Images were captured using Spot Advance Software (Diagnostic Instruments, Inc.).

dissolving of BI-667 in HPMCAS-HMP when no mixing was applied: not dissolve
Structure (SMILES): CS(=O)(=O)c1cc(C2(NC(=O)c3cncc4c3cnn4-c3ccc(F)cc3)CC2)ccn1 [BI-667]

— patent publication US20230167181A1, “PHARMACEUTICAL COMPOSITIONS AND METHODS OF MANUFACTURE USING THERMALLY CONDUCTIVE EXCIPIENTS” (BOARD OF REGENTS, THE UNIVERSITY OF TEXAS SYSTEM, priority 2020, published 2023)
